Source: US20250092039A1, “GLUTARIMIDE-CONTAINING PAN-KRAS-MUTANT DEGRADER COMPOUNDS AND USES THEREOF” (Tiger Biotherapeutics Inc., priority 2022, published 2025)
Read-outs that look alike come from different tables or passages of the source.

What was measured:
KRAS-G12V/RAF1 = KRAS-G12V/RAF1 (Homo sapiens (Human), UniProt P01116, G12V); experiment: KRAS/RAF1 binding inhibition assay (AlphaScreen)
Summary of the method: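 IC50 comes from variable-slope nonlinear fits of % inhibition (relative to DMSO) against inhibitor concentration. The AlphaScreen signal tracks the interaction of GppNHp-bound KRAS G12V with the RAF1 RBD after 60 min at 4° C with compound in 2% DMSO final.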

KRAS G12V = KRAS G12V (Homo sapiens (Human), UniProt P01116, G12V); experiment: KRAS G12V degradation in SW620 cells (Western blot, DC50); type: cell-based; conditions: 24 hours
Summary of the method: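 KRAS levels were quantified by fluorescent Western blot as percent of the DMSO control after 24 h of compound exposure at 37° C in homozygous KRAS G12V SW620 cells. A four-parameter variable-slope fit of the dose-response gave the half-maximal degradation concentration.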

SW620 cells = experiment: 3D cell growth inhibition of SW620 cells carrying endogenous KRAS G12V mutation (CellTiter-Glo 3D, GI50); type: cell-based; conditions: Homo sapiens, SW-620, 144 h, read-out: SW620 3D cell growth GI50
Summary of the method: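 […], compound exposure lasted 6 days at 37° C, added the day after plating from DMSO stocks over a concentration range. Cells: SW620, KRAS G12V, 3D culture.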

Chain of KRAS-G12V/RAF1 (P01116-2 other isoform, or with tags, fused parts or gaps G12V): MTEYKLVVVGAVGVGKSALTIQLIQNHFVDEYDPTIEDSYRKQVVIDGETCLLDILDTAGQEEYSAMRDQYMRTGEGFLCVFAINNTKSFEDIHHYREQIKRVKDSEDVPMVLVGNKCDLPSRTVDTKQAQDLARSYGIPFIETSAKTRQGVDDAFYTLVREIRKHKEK
Chain of KRAS G12V (P01116-2 other isoform, or with tags, fused parts or gaps G12V): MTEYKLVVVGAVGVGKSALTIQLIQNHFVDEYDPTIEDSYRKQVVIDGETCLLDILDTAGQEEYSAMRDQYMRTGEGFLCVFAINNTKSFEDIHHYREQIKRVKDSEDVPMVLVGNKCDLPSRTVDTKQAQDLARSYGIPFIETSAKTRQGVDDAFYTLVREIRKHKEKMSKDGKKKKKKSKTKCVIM

| SMILES | IC50 (KRAS-G12V/RAF1) [nM] | DC50 (KRAS G12V) [nM] | GI50 (SW620 cells; SW620 cells, 6 days) [nM] | GI50 (SW620 cells) [nM] |
| --- | --- | --- | --- | --- |
| C#Cc1c(F)ccc2cc(N)cc(-c3ncc4c(N5CCC[C@@](C)(O)C5)nc(OCC5(CN6CCC(CN7CCN(c8ccc9c(c8)CN([C@H]8CCC(=O)NC8=O)C9=O)CC7)CC6)CC5)nc4c3F)c12 [Compound 118, (S)-3-(5-(4-((1-((1-(((7-(3-amino-8-ethynyl-7-fluoronaphthalen-1-yl)-8-fluoro-4-((R)-3-hydroxy-3-methylpiperidin-1-yl)pyrido[4,3-d]pyrimidin-2-yl)oxy)methyl)cyclopropyl)methyl)piperidin-4-yl)methyl)piperazin-1-yl)-1-oxoisoindolin-2-yl)piperidine-2,6-dione] | > 200 | > 100 | > 100 |  |
| C#Cc1c(F)ccc2cc(N)cc(-c3ncc4c(N5CCC[C@@](C)(O)C5)nc(OCC5(CN6CCC7(CC6)CC(CN6CCN(c8ccc9c(c8)CN([C@H]8CCC(=O)NC8=O)C9=O)CC6)C7)CC5)nc4c3F)c12 [Compound 119, (S)-3-(5-(4-((7-((1-(((7-(3-amino-8-ethynyl-7-fluoronaphthalen-1-yl)-8-fluoro-4-((R)-3-hydroxy-3-methylpiperidin-1-yl)pyrido[4,3-d]pyrimidin-2-yl)oxy)methyl)cyclopropyl)methyl)-7-azaspiro[3.5]nonan-2-yl)methyl)piperazin-1-yl)-1-oxoisoindolin-2-yl)piperidine-2,6-dione] | > 200 | > 100 | > 100 |  |
| C[C@@]1(O)CCCN(c2nc(OCC3(CN4CCC(CN5CCN(c6ccc7c(c6)CN([C@H]6CCC(=O)NC6=O)C7=O)CC5)CC4)CC3)nc3c(F)c(-c4cc(O)cc5cccc(Cl)c45)ncc23)C1 [Compound 123, (S)-3-(5-(4-((1-((1-(((7-(8-chloro-3-hydroxynaphthalen-1-yl)-8-fluoro-4-((R)-3-hydroxy-3-methylpiperidin-1-yl)pyrido[4,3-d]pyrimidin-2-yl)oxy)methyl)cyclopropyl)methyl)piperidin-4-yl)methyl)piperazin-1-yl)-1-oxoisoindolin-2-yl)piperidine-2,6-dione] | 20 to 200 | 1 to 10 | 10 to 100 |  |
| CCc1c(F)ccc2cc(O)cc(-c3ncc4c(N5CCOCC6(CCO6)C5)nc(OCC5(CN6CCC7(CC6)CC(CN6CCN(c8ccc9c(c8)CN([C@H]8CCC(=O)NC8=O)C9=O)CC6)C7)CC5)nc4c3F)c12 (stereo partly drawn) [Compound 124, (3S)-3-(5-(4-((7-((1-(((7-(8-ethyl-7-fluoro-3-hydroxynaphthalen-1-yl)-8-fluoro-4-(1,6-dioxa-9-azaspiro[3.6]decan-9-yl)pyrido[4,3-d]pyrimidin-2-yl)oxy)methyl)cyclopropyl)methyl)-7-azaspiro[3.5]nonan-2-yl)methyl)piperazin-1-yl)-1-oxoisoindolin-2-yl)piperidine-2,6-dione] | 20 to 200 | 1 to 10 | < 10 |  |
| CCc1c(F)ccc2cc(O)cc(-c3ncc4c(N5CCC[C@@](C)(O)C5)nc(OCC5(CN6CC7(CCC(CN8CCN(c9ccc%10c(c9)CN([C@H]9CCC(=O)NC9=O)C%10=O)CC8)CC7)C6)CC5)nc4c3F)c12 [Compound 126, (3S)-3-[5-[4-[[2-[[1-[[7-(8-ethyl-7-fluoro-3-hydroxy-1-naphthyl)-8-fluoro-4-[(3R)-3-hydroxy-3-methyl-1-piperidyl]pyrido[4,3-d]pyrimidin-2-yl]oxymethyl]cyclopropyl]methyl]-2-azaspiro[3.5]nonan-7-yl]methyl]piperazin-1-yl]-1-oxo-isoindolin-2-yl]piperidine-2,6-dione] | 20 to 200 | 1 to 10 | < 10 |  |
| CCc1cccc2cc(O)cc(-c3ncc4c(N5CCNC(=O)CC5)nc(OCC5(CN6CCC7(CC6)CC(CN6CCN(c8ccc9c(c8)CN([C@H]8CCC(=O)NC8=O)C9=O)CC6)C7)CC5)nc4c3F)c12 [Compound 128, (S)-3-(5-(4-((7-((1-(((7-(8-ethyl-3-hydroxynaphthalen-1-yl)-8-fluoro-4-(5-oxo-1,4-diazepan-1-yl)pyrido[4,3-d]pyrimidin-2-yl)oxy)methyl)cyclopropyl)methyl)-7-azaspiro[3.5]nonan-2-yl)methyl)piperazin-1-yl)-1-oxoisoindolin-2-yl)piperidine-2,6-dione] | > 200 | > 100 | > 100 |  |
| C[C@@]1(O)CCCN(c2nc(OCC3(CN4CCC5(CC4)CC(CN4CCN(c6ccc7c(c6)CN([C@H]6CCC(=O)NC6=O)C7=O)CC4)C5)CC3)nc3c(F)c(-c4cc(O)cc5cccc(Cl)c45)ncc23)C1 [Compound 129, (S)-3-(5-(4-((7-((1-(((7-(8-chloro-3-hydroxynaphthalen-1-yl)-8-fluoro-4-((R)-3-hydroxy-3-methylpiperidin-1-yl)pyrido[4,3-d]pyrimidin-2-yl)oxy)methyl)cyclopropyl)methyl)-7-azaspiro[3.5]nonan-2-yl)methyl)piperazin-1-yl)-1-oxoisoindolin-2-yl)piperidine-2,6-dione] | 20 to 200 | < 1 | 10 to 100 |  |
| CCc1c(F)ccc2cc(O)cc(-c3ncc4c(N5CCC[C@@](C)(O)C5)nc(OCC5(CN6CC(N7CCN(c8ccc9c(c8)CN([C@H]8CCC(=O)NC8=O)C9=O)CC7)C6)CC5)nc4c3F)c12 [Compound 130, (S)-3-(5-(4-(1-((1-(((7-(8-ethyl-7-fluoro-3-hydroxynaphthalen-1-yl)-8-fluoro-4-((R)-3-hydroxy-3-methylpiperidin-1-yl)pyrido[4,3-d]pyrimidin-2-yl)oxy)methyl)cyclopropyl)methyl)azetidin-3-yl)piperazin-1-yl)-1-oxoisoindolin-2-yl)piperidine-2,6-dione] | 20 to 200 | 1 to 10 | < 10 |  |
| CCc1c(F)ccc2cc(O)cc(-c3ncc4c(N5CCC[C@@](C)(O)C5)nc(OCC5(CN6CCC7(CC6)CN(CC6CCN(c8ccc9c(c8)CN(C8CCC(=O)NC8=O)C9=O)CC6)C7)CC5)nc4c3F)c12 (stereo partly drawn) [Compound 131, 3-(5-(4-((7-((1-(((7-(8-ethyl-7-fluoro-3-hydroxynaphthalen-1-yl)-8-fluoro-4-((R)-3-hydroxy-3-methylpiperidin-1-yl)pyrido[4,3-d]pyrimidin-2-yl)oxy)methyl)cyclopropyl)methyl)-2,7-diazaspiro[3.5]nonan-2-yl)methyl)piperidin-1-yl)-1-oxoisoindolin-2-yl)piperidine-2,6-dione] | < 20 | < 1 |  | < 10 |
| CCc1c(F)ccc2cc(O)cc(-c3ncc4c(N5CCC[C@@](C)(O)C5)nc(OCC5(CN6CCN(CC7CN(c8ccc9c(c8)CN(C8CCC(=O)NC8=O)C9=O)C7)CC6)CC5)nc4c3F)c12 (stereo partly drawn) [Compound 133, 3-[5-[3-[[4-[[1-[[7-(8-ethyl-7-fluoro-3-hydroxy-1-naphthyl)-8-fluoro-4-[(3R)-3-hydroxy-3-methyl-1-piperidyl]pyrido[4,3-d]pyrimidin-2-yl]oxymethyl]cyclopropyl]methyl]piperazin-1-yl]methyl]azetidin-1-yl]-1-oxo-isoindolin-2-yl]piperidine-2,6-dione] | 20 to 200 | < 1 |  | < 10 |
| C[C@@]1(O)CCCN(c2nc(OCC3(CN4CCC5(CC4)CC(CN4CCN(c6ccc7c(c6)CN([C@H]6CCC(=O)NC6=O)C7=O)CC4)C5)CC3)nc3c(F)c(-c4cc(N)cc(Cl)c4C(F)(F)F)ncc23)C1 [Compound 135, (S)-3-(5-(4-((7-((1-(((7-(5-amino-3-chloro-2-(trifluoromethyl)phenyl)-8-fluoro-4-((R)-3-hydroxy-3-methylpiperidin-1-yl)pyrido[4,3-d]pyrimidin-2-yl)oxy)methyl)cyclopropyl)methyl)-7-azaspiro[3.5]nonan-2-yl)methyl)piperazin-1-yl)-1-oxoisoindolin-2-yl)piperidine-2,6-dione] | 20 to 200 | 1 to 10 | < 10 |  |
| CCc1c(F)ccc2cc(O)cc(-c3ncc4c(N5CCC[C@@](C)(O)C5)nc(OCC5(CN6CC7(CCC(N8CCN(c9ccc%10c(c9)CN([C@H]9CCC(=O)NC9=O)C%10=O)CC8)CC7)C6)CC5)nc4c3F)c12 [Compound 136, (S)-3-(5-(4-(2-((1-(((7-(8-ethyl-7-fluoro-3-hydroxynaphthalen-1-yl)-8-fluoro-4-((R)-3-hydroxy-3-methylpiperidin-1-yl)pyrido[4,3-d]pyrimidin-2-yl)oxy)methyl)cyclopropyl)methyl)-2-azaspiro[3.5]nonan-7-yl)piperazin-1-yl)-1-oxoisoindolin-2-yl)piperidine-2,6-dione] | < 20 | < 1 | 10 to 100 |  |
| CCc1c(F)ccc2cc(O)cc(-c3ncc4c(N5CCC[C@@](C)(O)C5)nc(OCC5(CN6CC(N7CC(N8CCN(c9ccc%10c(c9)CN([C@H]9CCC(=O)NC9=O)C%10=O)CC8)C7)C6)CC5)nc4c3F)c12 [Compound 137, (S)-3-(5-(4-(1′-((1-(((7-(8-ethyl-7-fluoro-3-hydroxynaphthalen-1-yl)-8-fluoro-4-((R)-3-hydroxy-3-methylpiperidin-1-yl)pyrido[4,3-d]pyrimidin-2-yl)oxy)methyl)cyclopropyl)methyl)-[1,3′-biazetidin]-3-yl)piperazin-1-yl)-1-oxoisoindolin-2-yl)piperidine-2,6-dione] | 20 to 200 | 1 to 10 | < 10 |  |
